Reference: patent US12240855B2, “Pyrrolopyrazole derivative” (DAIICHI SANKYO COMPANY, LIMITED, priority 2019, dated 2025)

Key:
[1] = tested on: PTDSS2 gene-disrupted (PTDSS2-KO) HCT116 cells; test: cells; conditions: Homo sapiens, HCT-116, 72 h, read-out: Test Example 3 PTDSS2-KO HCT116 GI50
Procedure: (§1) McCoy's 5A medium containing 10% bovine serum was used as the culture medium for each cell. […] They were added to each well of 384-well plates at 40 nL/well using an Echo555 (Labcyte Inc.). […] On the day of compound addition (day 0) and 3 days after compound addition (day 3), 10 μL/well of CellTiter-Glo® 2.0 Assay (Promega, #G9242), which is a reagent for ATP measurement, was added to each well, and the amount of luminescence in each well was measured with EnVision. From the amount of luminescence on the day of compound addition (C0) and the amount of luminescence of the compound non-addition group (C3) and compound addition group (T3) after 3 days of culture, cell viability was calculated based on the following formula. Cell viability (%)=[(T3−C0)/(C3−C0)]×100

HCT116 cells = test: cells; conditions: Homo sapiens, HCT-116, 72 h, read-out: Test Example 3 HCT116 GI50
Procedure: as §1

PSS1 = PSS1 (Homo sapiens, UniProt P48651); test: biochemical
[2] = tested on: PTDSS2-KO HCT116 cell-subcutaneous transplanted model; test: Test Example 4: Antitumor activity on PTDSS2-KO HCT116 cell-subcutaneous transplanted model; type: in vivo, female BALB/c-nu/nu mice; conditions: oral
Description: HCT116 cell-subcutaneous transplanted model PTDSS2-KO HCT116 cells were transplanted to a right subcutaneous axillary portion of female BALB/c-nu/nu mice at a proportion of 1×10^7 cells/head, and when the tumor volume reached 100 to 300 mm^3 (estimated tumor volume (major axis×minor axis×minor axis/2)), mice were divided into groups of 6 or 5 mice each such that there was no difference between groups. The female BALB/c-nu/nu mice were purchased from CHARLES RIVER LABORATORIES JAPAN, INC. The compounds of Examples 58, 57, 53, 30, 42, 32, 34, 33, and 31 were orally administered from the day of grouping in the dosing schedule shown in Table 12 (twice daily, 11 successive days (BID×11), or once daily, 13 successive days (QD×13)). The tumor volume was measured until the next day of completion of the administration (test end date). 0.5% methylcellulose (MC) was administered to the vehicle control group as the vehicle.
TGI %=(1−TVt/TVc)×100 • TGI: Tumor growth suppression rate • TVt: Group mean tumor volume of compound administration group on test end date • TVc: Group mean tumor volume of vehicle control group on test end date

Jeko-1 cells = test: Test Example 7: Cell growth suppression activity 4 (Jeko-1); type: cell-based; conditions: 72 h; Jeko-1 cells derived from human mantle cell lymphoma, 3 days of culture, ATP measurement (CellTiter-Glo 2.0)
Procedure: Jeko-1 cells derived from human mantle cell lymphoma were used. […] Jeko-1 cells were purchased from ATCC. Jeko-1 cells were seeded into 96 well plates at 50,000 cells/50 μL/well (day 0). The compound of Example 42 was serially diluted and prepared (10 steps, 30 μM-3 nM) and added to each well of 96 well plates at 50 μL/well. […] Cell viability (%)=[(T3−C0)/(C3−C0)]×100

[3] = tested on: PTDSS2-KO A375 cell-subcutaneous transplanted model; test: Test Example 8: Antitumor activity on PTDSS2-KO A375 cell-subcutaneous transplanted model; type: in vivo, female BALB/c-nu/nu mice; conditions: orally, once daily for 10 successive days (QD×10), test end date
Description: PTDSS2-KO A375 cells were transplanted to a right subcutaneous axillary portion of female BALB/c-nu/nu mice at a proportion of 1×10^6 cells/head, and when the tumor volume reached 100 to 300 mm^3 (estimated tumor volume (major axis×minor axis×minor axis/2)), mice were divided into groups of 6 each such that there was no difference between groups. The female BALB/c-nu/nu mice were purchased from CHARLES RIVER LABORATORIES JAPAN, INC. The compound of Example 42 was orally administered from the day of grouping, once daily for 10 successive days (QD×10). The tumor volume was measured until the next day of completion of the administration (test end date). 0.5% methylcellulose (MC) was administered to the vehicle control group as the vehicle.
The antitumor activity on PTDSS2-KO A375 cell-subcutaneous transplanted model of Test Example 8 was calculated by the following formula on each test end date. TGI %=(1−TVt/TVc)×100 • TGI: Tumor growth suppression rate • TVt: Group mean tumor volume of compound administration group on test end date • TVc: Group mean tumor volume of vehicle control group on test end date

NCI-N87 cells = test: Test Example 5: Cell growth suppression activity 2 (NCI-N87); type: cell-based; conditions: 168 h; NCI-N87 cells derived from human stomach cancer, 7 days of culture, ATP measurement (CellTiter-Glo 2.0)
Procedure: NCI-N87 derived from human stomach cancer was used. […] NCI-N87 cells were purchased from ATCC. NCI-N87 cells were seeded into 96 well plates at 5,000 cells/50 μL/well (day −1). The compound of Example 42 was serially diluted and prepared (10 steps, 20 μM-6 nM) and added to each well of 96 well plates at 50 μL/well. […] Cell viability (%)=[(T7−C0)/(C7−C0)]×100

ZR-75-1 cells = test: Test Example 6: Cell growth suppression activity 3 (ZR-75-1); type: cell-based; conditions: 144 h; ZR-75-1 cells derived from human breast cancer, 6 days of culture, ATP measurement (CellTiter-Glo 2.0)
Procedure: ZR-75-1 cells derived from human breast cancer were used. […] ZR-75-1 cells were purchased from ATCC. ZR-75-1 cells were seeded into 96 well plates at 5,000 cells/50 μL/well (day −1). The compound of Example 42 was serially diluted and prepared (10 steps, 20 μM-6 nM) and added to each well of 96 well plates at 50 μL/well. […] Cell viability (%)=[(T6−C0)/(C6−C0)]×100

[4] = 10 mg/kg, QD × 13, test end date
[5] = 20 mg/kg, QD × 13, test end date
[6] = 40 mg/kg, QD × 13, test end date

O=C1c2[nH]nc(-c3cccc4[nH]c(=O)oc34)c2C(c2ccc(F)cc2)N1CC(F)(F)F (single isomer, unassigned) [Example 8, 7-[4-(4-Fluorophenyl)-6-oxo-5-(2,2,2-trifluoroethyl)-1,4,5,6-tetrahydropyrrolo[3,4-c]pyrazol-3-yl]-1,3-benzoxazol-2(3H)-one (enantiomer)]
GI50 [1]: 1100 nM
GI50 (HCT116 cells): > 25000 nM

CC(F)(F)CN1C(=O)c2[nH]nc(-c3cccc4[nH]c(=O)oc34)c2C1c1ccc(Oc2cc(C(F)(F)F)cc(C(F)(F)F)c2)cc1 (single isomer, unassigned; (+)) [(+)-7-[4-{4-[3,5-bis(trifluoromethyl)phenoxy]phenyl}-5-(2,2-difluoropropyl)-6-oxo-1,4,5,6-tetrahydropyrrolo[3,4-c]pyrazol-3-yl]-1,3-benzoxazol-2(3H)-one]
IC50 (PSS1): > 5000 nM

CC(F)(F)CN1C(=O)c2[nH]nc(-c3cccc4[nH]c(=O)oc34)c2C1c1ccc(Oc2ccc(OC(F)(F)F)c(C(F)(F)F)c2)cc1 (single isomer, unassigned; (-)) [Example 33, (−)-7-[5-(2,2-difluoropropyl)-6-oxo-4-{4-[4-(trifluoromethoxy)-3-(trifluoromethyl)phenoxy]phenyl}-1,4,5,6-tetrahydropyrrolo[3,4-c]pyrazol-3-yl]-1,3-benzoxazol-2(3H)-one]
GI50 [1]: 14 nM
TGI (%) [2, 4]: 97%
TGI (%) [2, 5]: 98%
TGI (%) [2, 6]: 98%

CC(F)(F)CN1C(=O)c2[nH]nc(-c3cccc4[nH]c(=O)oc34)c2C1c1ccc(Oc2ccc(Cl)cc2)cc1 (single isomer, unassigned; (-)) [Example 57, (−)-7-{4-[4-(4-Chlorophenoxy)phenyl]-5-(2,2-difluoropropyl)-6-oxo-1,4,5,6-tetrahydropyrrolo[3,4-c]pyrazol-3-yl}-1,3-benzoxazol-2(3H)-one]
TGI (%) ([2]; 50 mg/kg, BID × 11, test end date): 89%
TGI (%) ([2]; 100 mg/kg, BID × 11, test end date): 97%

CC(F)(F)CN1C(=O)c2[nH]nc(-c3cccc4[nH]c(=O)oc34)c2C1c1ccc(Oc2ccc(Cl)cc2)cc1F (single isomer, unassigned; (-)) [Example 58, (−)-7-{4-[4-(4-Chlorophenoxy)-2-fluorophenyl]-5-(2,2-difluoropropyl)-6-oxo-1,4,5,6-tetrahydropyrrolo[3,4-c]pyrazol-3-yl}-1,3-benzoxazol-2(3H)-one]
TGI (%) ([2]; 200 mg/kg, BID × 11, test end date): 87%

O=C1c2[nH]nc(-c3cccc4[nH]c(=O)oc34)c2C(c2cc(OC3CCOCC3)ccc2F)N1CC(F)(F)F (stereo not shown) [Example 9, 7-[4-{2-Fluoro-5-[(oxan-4-yl)oxy]phenyl}-6-oxo-5-(2,2,2-trifluoroethyl)-1,4,5,6-tetrahydropyrrolo[3,4-c]pyrazol-3-yl]-1,3-benzoxazol-2(3H)-one]
GI50 [1]: 700 nM
GI50 (HCT116 cells): > 25000 nM

O=C1c2[nH]nc(-c3cccc4[nH]c(=O)oc34)c2C(c2cc(Oc3ccccc3)ccc2F)N1Cc1ccccn1 (stereo not shown) [Example 13, 7-{4-(2-Fluoro-5-phenoxyphenyl)-6-oxo-5-[(pyridin-2-yl)methyl]-1,4,5,6-tetrahydropyrrolo[3,4-c]pyrazol-3-yl}-1,3-benzoxazol-2(3H)-one]
GI50 [1]: 820 nM
GI50 (HCT116 cells): > 25000 nM

CC(F)(F)CN1C(=O)c2[nH]nc(-c3cccc4[nH]c(=O)oc34)c2[C@@H]1c1ccc(Oc2cc(C(F)(F)F)cc(C(F)(F)F)c2)cc1 [Example 42, (−)-7-[4-{4-[3,5-bis(trifluoromethyl)phenoxy]phenyl}-5-(2,2-difluoropropyl)-6-oxo-1,4,5,6-tetrahydropyrrolo[3,4-c]pyrazol-3-yl]-1,3-benzoxazol-2(3H)-one]
GI50 (Jeko-1 cells): 417 nM
GI50 [1]: 14 nM
TGI (%) ([3]; Dose 3 mg/kg): 47%
TGI (%) ([3]; Dose 10 mg/kg): 100%
TGI (%) ([3]; Dose 30 mg/kg): 100%
TGI (%) ([3]; Dose 100 mg/kg): 100%
IC50 (PSS1): 200 nM
GI50 (NCI-N87 cells): 7.4 nM
TGI (%) [2, 4]: 97%
TGI (%) [2, 5]: 98%
TGI (%) [2, 6]: 99%
GI50 (HCT116 cells): > 25000 nM
GI50 (ZR-75-1 cells): 2900 nM

CC(F)(F)CN1C(=O)c2[nH]nc(-c3cccc4[nH]c(=O)oc34)c2C1c1ccnc(Oc2ccc(F)cc2)n1 (stereo not shown) [Example 73, 7-{5-(2,2-Difluoropropyl)-4-[2-(4-fluorophenoxy)pyrimidine-4-yl]-6-oxo-1,4,5,6-tetrahydropyrrolo[3,4-c]pyrazol-3-yl}-1,3-benzoxazol-2(3H)-one]
GI50 [1]: 890 nM
GI50 (HCT116 cells): 19000 nM

CC(F)(F)CN1C(=O)c2[nH]nc(-c3cccc4[nH]c(=O)sc34)c2C1c1ccc(Oc2ccc(OC(F)(F)F)cc2)cc1 (stereo not shown) [Example 95, 7-[5-(2,2-Difluoropropyl)-6-oxo-4-{4-[4-(trifluoromethoxy)phenoxy]phenyl}-1,4,5,6-tetrahydropyrrolo[3,4-c]pyrazol-3-yl]-1,3-benzothiazol-2(3H)-one]
GI50 [1]: 6400 nM
GI50 (HCT116 cells): 7300 nM
